Measured values taken from PMC7116157 (Nature chemical biology, 2019).
pKd: −log10 of the molar value.

Target: T1, Cleavage and Polyadenylation Specificity Factor 3 (CPSF3) (Homo sapiens, UniProt Q9UKF6)
T1 sequence (Q9UKF6 1-459): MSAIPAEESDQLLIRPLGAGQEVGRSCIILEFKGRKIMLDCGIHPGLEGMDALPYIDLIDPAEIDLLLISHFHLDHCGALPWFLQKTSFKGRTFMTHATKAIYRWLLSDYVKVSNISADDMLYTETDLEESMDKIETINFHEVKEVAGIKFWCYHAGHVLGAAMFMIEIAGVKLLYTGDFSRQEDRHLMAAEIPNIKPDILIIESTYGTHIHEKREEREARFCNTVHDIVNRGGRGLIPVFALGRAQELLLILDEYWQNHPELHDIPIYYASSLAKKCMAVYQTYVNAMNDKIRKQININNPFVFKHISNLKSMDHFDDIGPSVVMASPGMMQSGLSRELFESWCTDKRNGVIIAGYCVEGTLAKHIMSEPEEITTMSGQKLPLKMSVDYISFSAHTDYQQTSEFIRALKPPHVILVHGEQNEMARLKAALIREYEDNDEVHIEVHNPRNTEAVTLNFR
Assay: […] Å co-crystal structure
Assay type: binding

How did the pKd turn out when CN1CCN(CCOc2c(Cl)cc(C(=O)N[C@@H](Cc3ccccc3)C(=O)O)c(O)c2Cl)CC1 [compound 2] was run?
Its pKd is 6.43.
